# Laboratory results: patent publication US20260146044A1, “AROMATIC COMPOUND, PHARMACEUTICAL COMPOSITION CONTAINING SAME, AND USE THEREOF” (Increland, priority 2023, published 2026)
# pIC50: −log10 of the molar value.
# Tested on: secretion levels of IL-6 in PBMC cells
# Test: Inhibition of R848-induced IL-6 secretion in PBMC (IL-6 ELISA)
# Format: cell-based
# Details: human PBMC, 20 h compound pre-incubation, 24 h stimulation
# Description: This experiment was carried out in RPMI 1640 medium containing 10% FBS/1% penicillin/streptomycin, with each of the compounds at an initial test concentration of 1 μM. The compound DMSO was dissolved to form a stock solution, which was gradiently diluted 4-fold with the culture medium to a 4× working solution concentration. The diluted solution was added to a 96-well plate with 50 μL per well. PBMC (batch No.: HPP20062307, Sichuan Hope Bio-tech Co., Ltd.) cells were counted, and diluted to a concentration of 2×10^6/mL. The diluted cells were added to the above compound-containing 96-well plate with 150 μL per well, fully mixed, and incubated in an incubator with 5% CO2 at 37° C. for 20 h. Then, R848 was further added until a final concentration of […], and the cells were further incubated in the incubator with 5% CO2 at 37° C. for additional 24 h. Then, after centrifugation at 2,000 rpm for 4 min, the supernatant was diluted 110×, and detected using an IL-6 ELISA kit. An OD450 value was read, and converted to an IL-6 concentration based on a standard curve, to calculate an IC50 value by fitting a dose-effect curve using GraphPad 5.0.
row,SMILES,pIC50
1,Cc1nn(C2CCC(=O)NC2=O)c2cccc(N3CCN(C[C@H]4CC[C@H](n5cc6cc(NC(=O)c7cnn8cccnc78)c(N7C[C@H]8C[C@@H]7CO8)cc6n5)CC4)CC3)c12 (stereo partly drawn) [TM-61],8.52
2,Cc1nn(C2CCC(=O)NC2=O)c2cccc(N3CC4CN(C[C@H]5CC[C@H](N6Cc7cc(NC(=O)c8cnn9cccnc89)c(N8CCOCC8)cc7C6=O)CC5)CC4C3)c12 (stereo partly drawn) [TM-59],8.66
3,COc1cc2nn([C@H]3CC[C@H](CN4CCN(c5cccc6c5c(C)nn6C5CCC(=O)NC5=O)CC4)CC3)cc2cc1NC(=O)c1cccc(C(F)(F)F)n1 (stereo partly drawn) [TM-29],7.25
4,Cc1nn(C2CCC(=O)NC2=O)c2cccc(N3CC4CN(C[C@H]5CC[C@H](n6cc7cc(NC(=O)c8cnn9cccnc89)c(N8C[C@@H]9C[C@H]8CO9)cc7n6)CC5)CC4C3)c12 (stereo partly drawn) [TM-46],7.33
5,COc1cc2nn([C@H]3CC[C@H](CN4CCN(c5cccc6c5c(C)nn6C5CCC(=O)NC5=O)CC4)CC3)cc2cc1NC(=O)c1cnn2ccc(N3CCOCC3)nc12 (stereo partly drawn) [TM-28],7.63

# Tested on: secretion levels of IL-6 in PBMC cells
# Test: Inhibition of LPS+IL-1β-induced IL-6 secretion in PBMC (IL-6 ELISA)
# Format: cell-based
# Details: human PBMC, 24 h compound pre-incubation, 20 h stimulation
# Description: This experiment was carried out in RPMI 1640 medium containing 10% FBS/1% penicillin/streptomycin, with each of the compounds at an initial test concentration of 1 μM. The compound DMSO was dissolved to form a stock solution, which was gradiently diluted 5-fold with the culture medium to a 4× working solution concentration. The diluted solution was added to a 96-well plate with 50 μL per well. PBMC (batch No.: HPP20062307, Sichuan Hope Bio-tech Co., Ltd.) cells were counted, and diluted to a concentration of 2×10^6/mL. The diluted cells were added to the above compound-containing 96-well plate with 150 μL per well, fully mixed, and incubated in an incubator with 5% CO2 at 37° C. for 24 h. Then, LPS and […] were further added to final concentrations of 10 ng/mL and 20 ng/mL, respectively, and the cells were further incubated in the incubator with 5% CO2 at 37° C. for 20 h. Then, after centrifugation at 2,000 rpm for 4 min, the supernatant was diluted 110×, and detected using an IL-6 ELISA kit. An OD450 value was read, and converted to an IL-6 concentration based on a standard curve, to calculate an IC50 value by fitting a dose-effect curve using GraphPad 5.0.
row,SMILES,pIC50
1,COc1cc2nn([C@H]3CC[C@H](CN4CC5CN(c6cccc7c6c(C)nn7C6CCC(=O)NC6=O)CC5C4)CC3)cc2cc1NC(=O)c1cccc(C(F)(F)F)n1 (stereo partly drawn) [TM-36],8.30
2,Cc1nn(C2CCC(=O)NC2=O)c2cccc(N3CCN(C[C@H]4CC[C@H](n5cc6cc(NC(=O)c7cnn8cccnc78)c(N7C[C@H]8C[C@@H]7CO8)cc6n5)CC4)CC3)c12 (stereo partly drawn) [TM-61],8.15
3,Cc1nn(C2CCC(=O)NC2=O)c2cccc(N3CCN(C[C@H]4CC[C@H](n5cc6cc(NC(=O)c7cnn8cccnc78)c(N7CCOC[C@H]7C)cc6n5)CC4)CC3)c12 (stereo partly drawn) [TM-73],7.36
4,Cc1nn(C2CCC(=O)NC2=O)c2cccc(N3CCN(C[C@H]4CC[C@H](n5cc6cc(NC(=O)c7cnn8cccnc78)c(C(F)F)cc6n5)CC4)CC3)c12 (stereo partly drawn) [TM-49],7.78
5,Cc1nn(C2CCC(=O)NC2=O)c2ccc(N3CC4CN(C[C@H]5CC[C@H](n6cc7cc(NC(=O)c8cnn9cccnc89)c(N8CCOCC8)cc7n6)CC5)CC4C3)cc12 (stereo partly drawn) [TM-40],6.86
6,COc1cc2nn([C@H]3CC[C@H](CN4CC5CN(c6ccc7c(c6)c(C)nn7C6CCC(=O)NC6=O)CC5C4)CC3)cc2cc1NC(=O)c1cccc(C(F)(F)F)n1 (stereo partly drawn) [TM-39],6.94
7,Cc1nn(C2CCC(=O)NC2=O)c2nccc(N3CCC4(CC3)CN(CC3CCC(n5cc6cc(NC(=O)c7cnn8cccnc78)c(N(C)C)cc6n5)CC3)C4)c12 (stereo not drawn) [TM-114],8.32
8,Cc1nn(C2CCC(=O)NC2=O)c2cccc(N3CCN(C[C@H]4CC[C@H](n5cc6cc(NC(=O)c7cnn8cccnc78)c(N7CCOC8(CC8)C7)cc6n5)CC4)CC3)c12 (stereo partly drawn) [TM-47],7.34
9,Cc1nn(C2CCC(=O)NC2=O)c2cccc(C3CCN(CC4CCC(n5cc6cc(NC(=O)c7cnn8cccnc78)c(N7CCOCC7)cc6n5)CC4)CC3)c12 (stereo not drawn) [TM-26],7.91
10,Cc1nn(C2CCC(=O)NC2=O)c2cccc(N3CC4CN(C[C@H]5CC[C@H](N6Cc7cc(NC(=O)c8cnn9cccnc89)c(N8CCOCC8)cc7C6=O)CC5)CC4C3)c12 (stereo partly drawn) [TM-59],8.45
11,Cc1nn(C2CCC(=O)NC2=O)c2ccnc(N3CCN(C[C@H]4CC[C@H](n5cc6cc(NC(=O)c7cnn8cccnc78)c(N(C)C)cc6n5)CC4)CC3)c12 (stereo partly drawn) [TM-103],9.14
12,Cc1nn(C2CCC(=O)NC2=O)c2cccc(N3CCC(CN4CCC(N5Cc6cc(NC(=O)c7cnn8cccnc78)c(N7CCOCC7)cc6C5=O)CC4)CC3)c12 (stereo not drawn) [TM-67],7.28
13,Cc1nn(C2CCC(=O)NC2=O)c2cccc(N3CC4CN(C[C@H]5CC[C@H](n6cc7cc(NC(=O)c8cnn9cccnc89)c(N8CCO[C@@H](C)C8)cc7n6)CC5)CC4C3)c12 (stereo partly drawn) [TM-53],7.42
14,COc1cc2nn([C@H]3CC[C@H](CN4CCN(c5cccc6c5c(C)nn6C5CCC(=O)NC5=O)CC4)CC3)cc2cc1NC(=O)c1cnn2cccnc12 (stereo partly drawn) [TM-30],8.43
15,Cc1nn(C2CCC(=O)NC2=O)c2cccc(N3CCC(CN4CCC(n5cc6cc(NC(=O)c7cnn8cccnc78)c(N7CCCOCC7)cc6n5)CC4)CC3)c12 (stereo not drawn) [TM-82],7.44
16,Cc1nn(C2CCC(=O)NC2=O)c2cccc(N3CCC(CN4CCC(n5cc6cc(NC(=O)c7cnn8cccnc78)c(N(C)C)cc6n5)CC4)CC3)c12 (stereo not drawn) [TM-71],7.60
17,Cc1nn(C2CCC(=O)NC2=O)c2cccc(N3CC4CN(C[C@H]5CC[C@H](n6cc7cc(NC(=O)c8cnn9cccnc89)c(N8CCOC9(CC9)C8)cc7n6)CC5)CC4C3)c12 (stereo partly drawn) [TM-48],7.32

row,SMILES,pIC50
1,Cc1nn(C2CCC(=O)NC2=O)c2cccc(N3CCC(CN4CCC(n5cc6cc(NC(=O)c7cnn8cccnc78)c(N7CCO[C@H](C)C7)cc6n5)CC4)CC3)c12 (stereo partly drawn) [TM-72],8.17
2,Cc1nn(C2CCC(=O)NC2=O)c2cccc(N3CCC(CN4CCC(n5cc6cc(NC(=O)c7cnn8cccnc78)c(N7CCOCC7)cc6n5)CC4)CC3)c12 (stereo not drawn) [TM-51],8.04
3,Cc1nn(C2CCC(=O)NC2=O)c2cccc(N3CCN(C[C@H]4CC[C@H](n5cc6cc(NC(=O)c7cnn8cccnc78)c(N7CCOC[C@@H]7C)cc6n5)CC4)CC3)c12 (stereo partly drawn) [TM-74],7.53
4,COc1cc2nn([C@H]3CC[C@H](CN4CC5CN(c6cccc7c6c(C)nn7C6CCC(=O)NC6=O)CC5C4)CC3)cc2cc1NC(=O)c1cccc(C)n1 (stereo partly drawn) [TM-35],7.53
5,COc1cc2nn([C@H]3CC[C@H](CN4CCN(c5cccc6c5c(C)nn6C5CCC(=O)NC5=O)CC4)CC3)cc2cc1NC(=O)c1cccc(C)n1 (stereo partly drawn) [TM-32],7.65
6,Cc1nn(C2CCC(=O)NC2=O)c2cccc(N3CCN(C[C@H]4CC[C@H](N5Cc6cc(NC(=O)c7cnn8cccnc78)c(N(C)C)cc6C5=O)CC4)CC3)c12 (stereo partly drawn) [TM-65],8.15
7,Cc1nn(C2CCC(=O)NC2=O)c2cccc(N3CC4CN(C[C@H]5CC[C@H](n6cc7cc(NC(=O)c8cnn9cccnc89)c(N8C[C@H]9C[C@@H]8CO9)cc7n6)CC5)CC4C3)c12 (stereo partly drawn) [TM-62],7.92
8,COc1cc2nn([C@H]3CC[C@H](CN4CC5CN(c6cccc7c6c(C)nn7C6CCC(=O)NC6=O)CC5C4)CC3)cc2cc1NC(=O)c1cnn2cccnc12 (stereo partly drawn) [TM-37],8.30
9,Cc1nn(C2CCC(=O)NC2=O)c2cccc(N3CCN(C[C@H]4CC[C@H](n5cc6cc(NC(=O)c7cnn8cccnc78)c(N7CCCOCC7)cc6n5)CC4)CC3)c12 (stereo partly drawn) [TM-79],7.41
10,Cc1nn(C2CCC(=O)NC2=O)c2cccc(OC3CCN(C[C@H]4CC[C@H](N5Cc6cc(NC(=O)c7cnn8cccnc78)c(N7CCOCC7)cc6C5=O)CC4)CC3)c12 (stereo partly drawn) [TM-60],8.36
11,Cc1nn(C2CCC(=O)NC2=O)c2cccc(N3CCN(C[C@H]4CC[C@H](n5cc6cc(NC(=O)c7cnn8cccnc78)c(N7CCO[C@@H](C)C7)cc6n5)CC4)CC3)c12 (stereo partly drawn) [TM-52],7.98
12,Cc1nn(C2CCC(=O)NC2=O)c2cccc(N3CCC(CN4CCC(N5Cc6cc(NC(=O)c7cnn8cccnc78)c(N7CCCOCC7)cc6C5=O)CC4)CC3)c12 (stereo not drawn) [TM-68],8.49
13,Cc1nn(C2CCC(=O)NC2=O)c2cccc(N3CCC(CN4CCC(N5Cc6cc(NC(=O)c7cnn8cccnc78)c(N7CCO[C@H](C)C7)cc6C5=O)CC4)CC3)c12 (stereo partly drawn) [TM-69],7.64
14,Cc1nn(C2CCC(=O)NC2=O)c2cccc(N3CC4CN(C[C@H]5CC[C@H](n6cc7cc(NC(=O)c8cnn9cccnc89)c(C(F)F)cc7n6)CC5)CC4C3)c12 (stereo partly drawn) [TM-50],8.42
15,Cc1nn(C2CCC(=O)NC2=O)c2cccc(N3CCN(C[C@H]4CC[C@H](N5Cc6cc(NC(=O)c7cnn8cccnc78)c(N7CCO[C@H](C)C7)cc6C5=O)CC4)CC3)c12 (stereo partly drawn) [TM-63],9.05
16,Cc1nn(C2CCC(=O)NC2=O)c2cccc(N3CCN(C[C@H]4CC[C@H](n5cc6cc(NC(=O)c7cnn8cccnc78)c(N(C)C)cc6n5)CC4)CC3)c12 (stereo partly drawn) [TM-70],8.93
17,Cc1nn(C2CCC(=O)NC2=O)c2cccc(N3CCN(C[C@H]4CC[C@H](n5cc6cc(NC(=O)c7cnn8cccnc78)c(N7C[C@@H]8C[C@H]7CO8)cc6n5)CC4)CC3)c12 (stereo partly drawn) [TM-45],8.26
